Experimental findings from patent publication US20250197387A1, “BCL-XL DEGRADERS AND USES THEREOF” (Kymera Therapeutics, Inc., priority 2021, published 2025) are described below.

What all share (format): cell-based
Experiment [1] has as its target T1, BCL-XL (Homo sapiens, UniProt Q07817).
T1 construct: endogenous in cells; host or cells: MOLT-4
In words: Bcl-xL ELISA degradation in MOLT-4 cells, 6 h. To be noted: for DC50: read-out: Bcl-xL ELISA in MOLT-4 degradation 6 h: Mean external-Abs DC50. As to the method:
The letter codes for BCL-XL DC50 include: A (<0.01 μM); B (0.01-0.1 μM); C (>[…]); D (>0.5-1.0 μM); and E (>1.0 μM). The letter codes for Dmax % include A (>75%); B (50 to 75%); C (<50%).
On the technique in general: ELISA stands for enzyme-linked immunosorbent assay.

The target in experiment [2] is T1, BCL-XL. In words: BCL-XL degradation assay, western blot in MOLT-4 cells, 16 h. The note with it: western blot, MOLT-4 cells, 16 h; for Dmax: read-out: Bcl-xL WB in MOLT-4 degradation 16 h: Average Dmax %; for DC50: read-out: Bcl-xL WB in MOLT-4 degradation 16 h: Mean external-Abs DC50. The method in brief: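 MOLT-4 cells treated with compounds at 0.02-10 μM final for 16 hr at 37° C; lysates analysed by western blot with anti-BCL-xL, beta-actin and GAPDH loading controls, infrared imaging and densitometry; DC50 and Dmax % reported as letter codes.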

Experiment [3] concerns Caki-2 cells. In words: CTG (CellTiter-Glo) cell viability assay, Caki-2. The note with it: 3 day incubation, read-out: CTG Chempartner - Caki-2 3 day: Average external-IC50. The gist of the method: (§1)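 MOLT-4 and Caki-2 cells at 10,000 cells/well exposed 3 days at 37° C., 5% CO2 to 9 doses (1:3, top 10 μM, 0.2% DMSO). Viability by CellTiter-Glo luminescence; IC50 from three-parameter logistic fit.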
On the technique in general: Cellular ATP, detected with luciferase, serves as a proxy for viable cell number.

Experiment [4] relates to MOLT-4 cells. In words: CTG (CellTiter-Glo) cell viability assay, MOLT-4. The note with it: 3 day incubation, read-out: CTG Cell Viability Assay - MOLT-4 3 day: Average external-IC50. The method in brief: as §1

Read-outs that look alike come from different tables or passages of the source. Some results are limits rather than exact numbers.

T1 sequence (Q07817 whole entry): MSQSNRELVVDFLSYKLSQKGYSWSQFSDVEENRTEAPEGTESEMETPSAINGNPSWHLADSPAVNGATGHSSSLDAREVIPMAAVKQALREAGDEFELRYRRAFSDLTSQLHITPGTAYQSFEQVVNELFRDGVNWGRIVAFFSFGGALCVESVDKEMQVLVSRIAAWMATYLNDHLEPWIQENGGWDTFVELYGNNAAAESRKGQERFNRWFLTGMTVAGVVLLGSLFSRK

For the molecule `Cc1ncsc1-c1ccc(CNC(=O)[C@@H]2C[C@@H](O)CN2C(=O)[C@@H](NC(=O)C2(F)CC2)C(C)(C)C)c(OCCN2CCN(CC[C@H](CSc3ccccc3)Nc3ccc(S(=O)(=O)NC(=O)c4ccc(N5CCN(CC6=C(c7ccc(Cl)cc7)CCC(C)(C)C6)CC5)cc4)cc3S(=O)(=O)C(F)(F)F)CC2)c1` [I-394], the values for the Dmax in experiment [1] and in experiment [2] were 50 to 75% and more than 75%, respectively. The 50% degradation concentration (DC50) in experiment [1] is 10 to 100 nM; in experiment [2] it was less than 10 nM. The IC50 in experiment [3] (Homo sapiens, 72 h) was more than 10000 nM; in experiment [4] (Homo sapiens, MOLT-4, 72 h), less than 100 nM.
`Cc1cc(N(C)c2ccc(-c3cnn(CC4CCCCC4)c3C)c(C(=O)NS(=O)(=O)CCCCCC(=O)N[C@H](C(=O)N3C[C@H](O)C[C@H]3C(=O)N[C@@H](C)c3ccc(-c4scnc4C)cc3)C(C)(C)C)n2)nnc1Nc1nc2ccccc2s1` [I-120]: in experiment [2], the maximal degradation (Dmax) was more than 75% and the DC50 fell in the range of 10 to 100 nM. In addition, the IC50 in experiment [3] (Homo sapiens, 72 h) was more than 10000 nM. The half-inhibitory concentration (IC50) in experiment [4] (Homo sapiens, MOLT-4, 72 h) lay within 100 to 1000 nM.
Taken in the same sequence, the figures for `Cc1ncsc1-c1ccc([C@H](C)NC(=O)[C@@H]2C[C@@H](O)CN2C(=O)[C@@H](NC(=O)N2CC3(C2)CN(c2ccc(S(=O)(=O)NC(=O)c4nc(N5CCc6cccc(C(=O)Nc7nc8ccccc8s7)c6C5)ccc4-c4cnn(CC5CCCCC5)c4C)cc2)C3)C(C)(C)C)cc1` [I-196] were 50 to 75%, less than 10 nM, 1000 to 10000 nM and 100 to 1000 nM.
Taken in the same sequence, the figures for `Cc1ncsc1-c1ccc([C@H](C)NC(=O)[C@@H]2C[C@@H](O)CN2C(=O)[C@@H](NC(=O)CCCCCCCS(=O)(=O)NC(=O)c2nc(N3CCc4cccc(C(=O)Nc5nc6cccnc6s5)c4C3)ccc2-c2cnn(CC34CC5CC(CC(C5)C3)C4)c2C)C(C)(C)C)cc1` [I-141] were more than 75%, less than 10 nM, 1000 to 10000 nM and less than 100 nM.
Regarding `Cc1ncsc1-c1ccc([C@H](CC(=O)NCCCCCNC(=O)c2nc(N3CCc4cccc(C(=O)Nc5nc6ccccc6s5)c4C3)ccc2-c2cnn(CC3CCCCC3)c2C)NC(=O)[C@@H]2C[C@@H](O)CN2C(=O)[C@@H](NC(=O)C2(F)CC2)C(C)(C)C)cc1` [I-199], in experiment [2], the Dmax is more than 75% and the half-maximal degradation concentration (DC50) fell in the range of 10 to 100 nM. Also, the IC50 in experiment [3] (Homo sapiens, 72 h) is more than 10000 nM. Moreover, in experiment [4] (Homo sapiens, MOLT-4, 72 h), the IC50 was 100 to 1000 nM.
For `Cc1cc([C@@H](C(=O)N2C[C@H](O)C[C@H]2C(=O)NCc2ccc(-c3scnc3C)cc2OCCCCCCNC(=O)c2nc(N3CCc4cccc(C(=O)Nc5nc6ccccc6s5)c4C3)ccc2-c2cnn(CC3CCCCC3)c2C)C(C)C)on1` [I-198], the Dmax in experiment [2] is more than 75%. For the same molecule, in experiment [2], the DC50 was in the range of 10 to 100 nM. Further, the 50% inhibitory concentration (IC50) was more than 10000 nM in experiment [3] (Homo sapiens, 72 h) and less than 100 nM in experiment [4] (Homo sapiens, MOLT-4, 72 h).
The matching figures for `Cc1ncsc1-c1ccc(CNC(=O)[C@@H]2C[C@@H](O)CN2C(=O)[C@@H](NC(=O)C2(F)CC2)C(C)(C)C)c(OCCN2CCN(C(=O)c3nc(N4CCc5cccc(C(=O)Nc6nc7ccccc7s6)c5C4)ccc3-c3cnn(CC4CCCCC4)c3C)CC2)c1` [I-201]: more than 75%, 10 to 100 nM, more than 10000 nM and 100 to 1000 nM.
Take `Cc1ncsc1-c1ccc([C@H](C)NC(=O)[C@@H]2C[C@@H](O)CN2C(=O)[C@@H](NC(=O)CCCCCCCCC(=O)N(C)CC#Cc2ccc(OCCCc3sc(N4CCc5cccc(C(=O)Nc6nc7ccccc7s6)c5C4)nc3C(=O)O)c(F)c2)C(C)(C)C)cc1` [I-384]: in experiment [2], the Dmax is more than 75% and the DC50 was less than 10 nM. Moreover, in experiment [3] (Homo sapiens, 72 h), the IC50 is 1000 to 10000 nM. Also, the IC50 in experiment [4] (Homo sapiens, MOLT-4, 72 h) lay in the range of 100 to 1000 nM.
`Cc1ncsc1-c1ccc([C@H](C)NC(=O)[C@@H]2C[C@@H](O)CN2C(=O)[C@@H](NC(=O)c2ccc(CCS(=O)(=O)NC(=O)c3nc(N4CCc5cccc(C(=O)Nc6nc7ccccc7s6)c5C4)ccc3-c3cnn(CC4CCCCC4)c3C)cc2)C(C)(C)C)cc1` [I-143]: in experiment [2], the Dmax was more than 75% and the DC50 was less than 10 nM. Besides, in experiment [3] (Homo sapiens, 72 h), the half-maximal inhibitory concentration (IC50) fell in the range of 1000 to 10000 nM. The IC50 in experiment [4] (Homo sapiens, MOLT-4, 72 h) was less than 100 nM.
With `C#Cc1ccc(CNC(=O)[C@@H]2C[C@@H](O)CN2C(=O)[C@@H](NC(=O)CCCCS(=O)(=O)NC(=O)c2nc(N(C)c3cc(C)c(Nc4nc5ccccc5s4)nn3)ccc2-c2cnn(CC34CC5CC(CC(C5)C3)C4)c2C)C(C)(C)C)cc1` [I-369], in experiment [1], the maximal degradation (Dmax) is more than 75% and the DC50 is 10 to 100 nM. In addition, in experiment [3] (Homo sapiens, 72 h), the IC50 was more than 10000 nM. In addition, in experiment [4] (Homo sapiens, MOLT-4, 72 h), the IC50 was less than 100 nM.
Take `C#Cc1ccc(CNC(=O)[C@@H]2C[C@@H](O)CN2C(=O)[C@@H](NC(=O)CCCCCS(=O)(=O)NC(=O)c2nc(N3CCc4cccc(C(=O)Nc5nc6cccnc6s5)c4C3)ccc2-c2cnn(CC3CCCC3)c2C)C(C)(C)C)cc1` [I-445]: in experiment [1], the Dmax was more than 75% and the DC50 lay in the range of 10 to 100 nM. Besides, in experiment [3] (Homo sapiens, 72 h), the half-maximal inhibitory concentration (IC50) is more than 10000 nM. Moreover, in experiment [4] (Homo sapiens, MOLT-4, 72 h), the IC50 lay in the range of 100 to 1000 nM.
The matching figures for `C#Cc1ccc([C@H](COC)NC(=O)[C@@H]2C[C@@H](O)CN2C(=O)[C@@H](NC(=O)CCCCCS(=O)(=O)NC(=O)c2nc(N3CCc4cccc(C(=O)Nc5nc6cccnc6s5)c4C3)ccc2-c2cnn(CC3CCCCC3)c2C)C(C)(C)C)cc1` [I-478]: more than 75%, less than 10 nM, more than 10000 nM and less than 100 nM.
As to `Cc1ncsc1-c1ccc([C@H](C)NC(=O)[C@@H]2C[C@@H](O)CN2C(=O)[C@@H](NC(=O)C2CCN(c3ccc(S(=O)(=O)NC(=O)c4nc(N5CCc6cccc(C(=O)Nc7nc8ccccc8s7)c6C5)ccc4-c4cnn(CC5CCCC5)c4C)cc3)CC2)C(C)(C)C)cc1` [I-348], in experiment [1], the Dmax is more than 75%. Besides, the DC50 in experiment [1] is less than 10 nM. In addition, the IC50 was more than 10000 nM in experiment [3] (Homo sapiens, 72 h) and less than 100 nM in experiment [4] (Homo sapiens, MOLT-4, 72 h).
Taken in the same sequence, the figures for `Cc1cc(N(C)c2ccc(-c3cnn(CC45CC6CC(CC(C6)C4)C5)c3C)c(C(=O)NS(=O)(=O)CCCCC(=O)N[C@H](C(=O)N3C[C@H](O)C[C@H]3C(=O)NCc3ccc(-c4scnc4C)cc3)C(C)(C)C)n2)nnc1Nc1nc2ccccc2s1` [I-371] were more than 75%, less than 10 nM, more than 10000 nM and 100 to 1000 nM.
Take `Cc1ncsc1-c1ccc(CNC(=O)[C@@H]2C[C@@H](O)CN2C(=O)[C@@H](NC(=O)CCc2cccc(S(=O)(=O)NC(=O)c3nc(N4CCc5cccc(C(=O)Nc6nc7ccccc7s6)c5C4)ccc3-c3cnn(CC4CCCCC4)c3C)c2)C(C)(C)C)cc1` [I-321]: in experiment [1], the “Bcl-xL ELISA in MOLT-4 degradation 6 h: Average Dmax %” value is “A (A (>75%))” and the DC50 was 10 to 100 nM. Besides, the IC50 in experiment [3] lay within 1000 to 10000 nM. Also, the IC50 in experiment [4] is less than 100 nM.
For the molecule `Cc1cc(N(C)c2ccc(-c3cnn(CC45CC6CC(CC(C6)C4)C5)c3C)c(C(=O)NS(=O)(=O)CCCCC(=O)N[C@H](C(=O)N3C[C@H](O)C[C@H]3C(=O)N[C@@H](C)c3ccc(-c4scnc4C)cc3)C(C)(C)C)n2)nnc1Nc1nc2ccccc2s1` [I-372], in experiment [1], the Dmax was more than 75% and the DC50 was in the range of 10 to 100 nM. Also, the concentration for half-maximal inhibition (IC50) in experiment [3] (Homo sapiens, 72 h) was more than 10000 nM. Also, the IC50 in experiment [4] (Homo sapiens, MOLT-4, 72 h) is less than 100 nM.
Taken in the same sequence, the figures for `Cc1cc(N(C)c2ccc(-c3cnn(CC45CC6CC(CC(C6)C4)C5)c3C)c(C(=O)NS(=O)(=O)CCCC(=O)N[C@H](C(=O)N3C[C@H](O)C[C@H]3C(=O)N[C@@H](C)c3ccc(-c4scnc4C)cc3)C(C)(C)C)n2)nnc1Nc1nc2cccnc2s1` [I-452] were more than 75%, 100 to 500 nM, more than 10000 nM and 1000 to 3000 nM.
Taken in the same sequence, the figures for `C#Cc1ccc([C@H](C)NC(=O)[C@@H]2C[C@@H](O)CN2C(=O)[C@@H](NC(=O)CCCCCS(=O)(=O)NC(=O)c2nc(N(C)c3cc(C)c(Nc4nc5ccccc5s4)nn3)ccc2-c2cnn(CC34CC5CC(CC(C5)C3)C4)c2C)C(C)(C)C)cc1` [I-382] were more than 75%, less than 10 nM, more than 10000 nM and less than 100 nM.
The matching figures for `Cc1ncsc1-c1ccc([C@H](C)NC(=O)[C@@H]2C[C@@H](O)CN2C(=O)[C@@H](NC(=O)C2CCN(c3ccc(S(=O)(=O)NC(=O)c4nc(N5CCc6cccc(C(=O)Nc7nc8ccccc8s7)c6C5)ccc4-c4cnn(CC5CCCCC5)c4C)cc3CC(=O)O)CC2)C(C)(C)C)cc1` [I-296]: 50 to 75%, 100 to 500 nM, 1000 to 10000 nM and 100 to 1000 nM.
For the molecule `Cc1cc(N(C)c2ccc(-c3cnn(CC(C)(C)C)c3C)c(C(=O)NS(=O)(=O)c3ccc(N4CCC(C(=O)N[C@H](C(=O)N5C[C@H](O)C[C@H]5C(=O)N[C@@H](C)c5ccc(-c6scnc6C)cc5)C(C)(C)C)CC4)cc3)n2)nnc1Nc1nc2cccnc2s1` [I-456], in experiment [1], the Dmax was less than 50% and the DC50 was more than 1000 nM. Moreover, the IC50 in experiment [3] (Homo sapiens, 72 h) is more than 10000 nM. Moreover, the IC50 in experiment [4] (Homo sapiens, MOLT-4, 72 h) is more than 3000 nM.

As usually defined, the Dmax is the largest share of the target that was removed. As usually defined, the DC50 is the concentration at which degradation of the target reaches its halfway point. The term IC50 denotes the concentration that inhibits the measured activity by half.
